From patent publication US8173618B2, “Formulations for reducing neuronal degeneration” (University of Massachusetts, priority 2003, dated 2012)
Where “and” joins values, the source holds several entries; their conditions need not be identical. Equal entries are not always repeated.

Tests used:
[1] = system: SH-SY-5Y human neuroblastoma cells; experiment: PHF-1 immunoreactivity (phospho-tau) in differentiated SH-SY-5Y cells with or without folate; assay type: cell-based
Experimental: Cultured cells were used to test individual agents and formulations. […] For immunocytochemistry to detect paired helical filament-1 (PHF-1) staining (as an index of tau phosphorylation), cells were fixed for 15 minutes with 4% paraformaldehyde in 0.1 M phosphate buffer and immunostained by sequential reaction with a mouse monoclonal PHF-1 antibody that was raised against tau from paired helical filaments isolated from the brains of Alzheimer disease patients. Incubation with PHF-1 antibody was followed by rhodamine conjugated goat anti-mouse IgG and visualization using methods known in the art. […] Cortical neurons were prepared from 12 day embryonic C57/B16 day old mice using known methods. Both the SH-SY-5Y cultures and the cortical neurons were processed for PHF-1 (paired helical filament 1) immunofluorescence using known methods ([…] et al., 1999 supra). Control cells cultured in the continued presence of normal folate levels were also processed. Phospho-tau was also examined using immunoblot analysis. […] The homogenates were sedimented at 13,000×g for 15 minutes and the resulting supernatant was electrophoresed, blotted, and the blot stained for PHF-1 using known methods.

[2] = system: differentiated SH-SY-5Y cells; experiment: Intracellular ROS by DCFD fluorescence in differentiated SH-SY-5Y cells; assay type: cell-based, human
Experimental: Cultured cells were used to test individual agents and formulations. In general, SH-SY-5Y human neuroblastoma cells were cultured in DMEM (Cellgro) containing 10% fetal bovine serum in 5% CO2.
For treatments with Abeta, differentiated cultures were transferred to medium without serum and treated for two hours with 20 μM Abeta25-35 (Sigma Chemical Co., St. Louis, Mo.). […] Louis, Mo.). In experiments calling for treatment of cell cultures with N-acetyl cysteine (NAC; NALC), cultures were treated with 10 mM NAC (Sigma Chemical Co., St. Louis, Mo.) after the culture was grown for two hours in serum-free medium.
Intracellular reactive oxygen species (ROS) were monitored as described in Ekinci et al., 1999 (J. Biol. Chem., 274:30322-30327). Briefly, cells were incubated for 30 minutes with dichloro-fluorescein diacetate (DCFD; acetoxymethyl ester; Molecular Probes, Inc., Eugene, Oreg.), which is used to detect intracellular peroxide levels. Incubation was followed by rinsing of cultures in serum-free medium and immediate capture of images using UV optics. Images were captured under epifluorescent and phase-contrast illumination using a DAGE CCL-72 cooled CCD camera via a Scion LG-3 frame grabber operated by NIH Image (see the Internet at rsb.info.nih.gov/nih-image). Images were then stored as PICT files on a Macintosh Power PC 7100AV for subsequent analysis. At least 100 cells in randomly-selected fields from duplicate cultures derived from multiple experiments were scored for fluorescent intensity using NIH Image analysis software. Representative background areas devoid of cells were similarly analyzed and subtracted from cell values to yield net densitometric values. All fields for each individual assay were illuminated, captured, and processed under identical settings. Corresponding phase-contrast images were obtained. Cell aggregates were excluded from the assays; only individual cells were quantified. Values were exported to Excel for statistical analyses using Student's t test.
For monitoring of intracellular peroxide concentrations as an index of ROS, cultures received 10 μl/ml DFCD (2′7′-dichlorofluorescein diacetate; Kodak) for 20 minutes. Cultures were then visualized under fluorescein UV optics (perikaryon; Ekinci and Shea, 1999, supra).

[3] = system: differentiated SH-SY-5Y cells; experiment: Externalized phosphatidylserine (meracyanine fluorescence) as index of apoptosis in SH-SY-5Y cells; assay type: cell-based, human
Experimental: Levels of externalized phosphatidylserine (PS) were used as a measure of apoptosis (Rimon et al., 1997, J. Neurosci. Res., 48:563-570). Briefly, cultures were subjected to treatments then rinsed with PBS and incubated with 10 μl/ml merocyanine (Upstate Biotech, Lake Placid, N.Y.), followed by examination under rhodamine optics (Ekinci et al, 1999, J. Biol. Chem., 274:30322-30327).
The question of whether folate deficiency is associated with apoptosis was investigated. […] Overall detachment, a further sign of cell death, was evident by the seventh day in the serum-deprived cultures. The detachment phenomenon precluded longer experiments.
The effect of ALCAR on differentiated SH-SY-5Y cells treated with Abeta was examined. Cells were cultured in 20 μM Abeta in the presence and absence of ALCAR. Some cultures were pretreated with 50 μM ALCAR for 30 minutes. In these experiments, the ALCAR-containing medium was replaced with medium containing Abeta and no ALCAR then incubated for two hours before being assayed. Cultures were assayed for ROS, apoptosis, and ATP.

[4] = Snowdon et al., 2000; cited from earlier work

## Nc1nc2ncc(CNc3ccc(C(=O)N[C@@H](CCC(=O)O)C(=O)O)cc3)nc2c(=O)[nH]1 [folate, folic acid]
[1]; +Folate 4 hr
  PHF-1 (phospho-tau) Mean ± SEM: 40.3 ± 3.9
[1]; +Folate 24 hr
  % increase in phospho-tau compared to control: −5.5%
  PHF-1 (phospho-tau) Mean ± SEM: 38.1 ± 3.1
[1]; after folate deprivation for 24 hours
  PHF-1 levels after cultures received medium containing folate: returned to control levels within four hours
[1]; folate deficiency, two hours
  average increase in PHF-1 immunofluorescence: 3.5 fold
[1]; folate deprivation for 24 hours
  average increase in phospho-tau: 29%
[1]; following folate deprivation
  accumulation of phospho-tau after restoration of folate: reversed within two hours
[1]; two hour deprivation of folate
  total tau levels (monoclonal antibody 5E2): not altered
[1]; −Folate 4 hr
  % increase in phospho-tau compared to control: 29%
  PHF-1 (phospho-tau) Mean ± SEM: 52.0 ± 3.4
[1]; −Folate 24 hr
  % increase in phospho-tau compared to control: −1.5%
  PHF-1 (phospho-tau) Mean ± SEM: 39.7 ± 2.6
[2]; 5×folate (20 mg/l), 20 μM Abeta two hours
  Abeta-induced increase in ROS: prevented
[2]; 10×folate compared to 1-5×folate
  ROS in otherwise untreated cells: marginal decrease in ROS
[2]; folate (control), two hours
  ROS Mean ± SEM: 7.6 ± 0.3
[2]; folate deprivation, compared to cells cultured in the presence of folate (Example 6)
  increase in ROS: 64±5%
[2]; no folate, two hours
  ROS Mean ± SEM: 10.5 ± 0.5
[2]; no folate, two hours, vs cultures receiving folate
  ROS % increase vs. control: 38±4% and 38%
[2]; single agent, control cells and cells exposed to Abeta, two hours
  ROS: reduced ROS
[3]; +folate, Day 1, without serum
  meracyanine fluorescence (externalized PS) Mean ± SEM: 34.0 ± 1.2 arbitrary fluorescent units
[3]; +folate, Day 3, without serum
  meracyanine fluorescence (externalized PS) Mean ± SEM: 40.9 ± 2.0 arbitrary fluorescent units
[3]; +folate, Day 5, without serum
  meracyanine fluorescence (externalized PS) Mean ± SEM: 63.7 ± 3.6 arbitrary fluorescent units
[3]; −folate, Day 1, without serum
  meracyanine fluorescence (externalized PS) Mean ± SEM: 31.2 ± 1.4 arbitrary fluorescent units
[3]; −folate, Day 3, without serum
  meracyanine fluorescence (externalized PS) Mean ± SEM: 44.1 ± 4.1 arbitrary fluorescent units
[3]; −folate, Day 5, without serum
  meracyanine fluorescence (externalized PS) Mean ± SEM: 112.7 ± 5.7 arbitrary fluorescent units
[4]
  concentration in spinal fluid versus plasma: concentrated four-fold within spinal fluid over that observed within plasma
